Active and inactive are the calls of the source.
Tests used:
[1] = tested on: Streptococcus sp. 'group A'; assay: growth inhibition of control SK(-) GAS strain, dose response, counter-screen for streptokinase expression inhibitor project, luminescence, kanamycin, BacTiterGlo, confirmation (AID 1900); assay type: functional, organism-based
[2] = cells; assay type: functional, cell-based
[3] = inhibitors of intracellular T. cruzi replication, confirmation, NIH3T3 host cells, beta-gal luminescence (AID 2044); assay type: functional, cell-based;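 further: intracellular parasites grown in NIH/3T3 mouse fibroblasts as host cells; luminescent beta-galactosidase reporter signal from transgenic T. cruzi replicating inside host cells; inhibitors lower the luminescence signal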
[4] = cells; assay type: functional, cell-based; remark: listed apart in the source
[5] = cytotoxicity toward NIH3T3 fibroblasts, dose response, counter-screen, cell-based, ATP luminescence, mouse fibroblasts (AID 2010); assay type: functional;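 further: cells exposed to compound for about 90 hours before reading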
[6] = tested on: Streptococcus; assay: Group A Streptococcus viability loss, dose response, counter-screen for streptokinase expression inhibitor project, luminescence, BacTiterGlo (AID 1915); assay type: functional, organism-based;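 further: potency for reduction of bacterial viability or growth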
[7] = target: T1, Exodeoxyribonuclease V (Escherichia coli (strain K12), UniProt P04993+P07648+P08394); assay: E. coli RecBCD inhibitors, dose response, counter-screen for AddAB inhibitor project, absorbance, V66 E. coli, mutant T4 phage (AID 492957); assay type: functional, cell-based, Escherichia coli str. K-12 substr. MG1655
T1 sequence (P04993 whole entry): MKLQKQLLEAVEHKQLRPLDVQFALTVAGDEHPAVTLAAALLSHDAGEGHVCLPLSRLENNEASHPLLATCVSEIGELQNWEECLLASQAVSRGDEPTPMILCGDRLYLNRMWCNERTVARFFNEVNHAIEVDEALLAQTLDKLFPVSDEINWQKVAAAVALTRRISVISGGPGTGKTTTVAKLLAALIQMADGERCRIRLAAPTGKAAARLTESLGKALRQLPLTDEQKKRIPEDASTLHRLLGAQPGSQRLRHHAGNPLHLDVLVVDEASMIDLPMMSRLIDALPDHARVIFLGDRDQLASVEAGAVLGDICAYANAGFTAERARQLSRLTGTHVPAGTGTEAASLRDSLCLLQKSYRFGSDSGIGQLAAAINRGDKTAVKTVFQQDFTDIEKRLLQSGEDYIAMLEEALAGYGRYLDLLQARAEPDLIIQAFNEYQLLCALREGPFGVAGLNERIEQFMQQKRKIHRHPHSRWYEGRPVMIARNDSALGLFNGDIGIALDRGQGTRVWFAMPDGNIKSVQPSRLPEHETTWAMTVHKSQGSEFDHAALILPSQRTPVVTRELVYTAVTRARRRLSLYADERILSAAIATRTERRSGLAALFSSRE
T1 sequence (P07648 whole entry): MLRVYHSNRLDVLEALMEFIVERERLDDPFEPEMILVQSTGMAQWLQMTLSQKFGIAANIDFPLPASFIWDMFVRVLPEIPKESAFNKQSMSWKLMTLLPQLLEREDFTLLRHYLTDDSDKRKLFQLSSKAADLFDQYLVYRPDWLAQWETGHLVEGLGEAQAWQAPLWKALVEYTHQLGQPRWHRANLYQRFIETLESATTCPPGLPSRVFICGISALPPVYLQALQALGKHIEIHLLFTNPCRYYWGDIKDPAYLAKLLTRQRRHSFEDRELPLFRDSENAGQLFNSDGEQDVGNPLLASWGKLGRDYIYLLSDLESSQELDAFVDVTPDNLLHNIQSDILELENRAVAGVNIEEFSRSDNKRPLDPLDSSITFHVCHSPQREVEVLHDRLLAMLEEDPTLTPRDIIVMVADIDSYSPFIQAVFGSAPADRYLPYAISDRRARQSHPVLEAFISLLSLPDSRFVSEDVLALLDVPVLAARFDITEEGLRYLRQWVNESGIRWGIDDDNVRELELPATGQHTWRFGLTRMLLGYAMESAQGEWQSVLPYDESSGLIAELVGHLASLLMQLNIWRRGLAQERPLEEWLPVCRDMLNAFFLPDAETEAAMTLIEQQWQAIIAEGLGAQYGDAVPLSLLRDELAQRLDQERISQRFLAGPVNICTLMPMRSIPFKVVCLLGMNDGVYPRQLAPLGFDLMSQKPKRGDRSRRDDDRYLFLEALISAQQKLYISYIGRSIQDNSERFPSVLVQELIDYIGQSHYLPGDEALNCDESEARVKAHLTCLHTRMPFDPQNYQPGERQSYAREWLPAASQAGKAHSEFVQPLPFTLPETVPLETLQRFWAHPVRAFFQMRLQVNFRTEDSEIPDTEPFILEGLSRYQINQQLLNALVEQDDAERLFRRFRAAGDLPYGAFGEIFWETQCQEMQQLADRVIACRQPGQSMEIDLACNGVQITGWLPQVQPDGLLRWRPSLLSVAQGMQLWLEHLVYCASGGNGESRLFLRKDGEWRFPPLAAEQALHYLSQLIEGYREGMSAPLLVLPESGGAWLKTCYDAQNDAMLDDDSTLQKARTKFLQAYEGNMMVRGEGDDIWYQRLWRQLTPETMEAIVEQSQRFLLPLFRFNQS
T1 sequence (P08394 whole entry): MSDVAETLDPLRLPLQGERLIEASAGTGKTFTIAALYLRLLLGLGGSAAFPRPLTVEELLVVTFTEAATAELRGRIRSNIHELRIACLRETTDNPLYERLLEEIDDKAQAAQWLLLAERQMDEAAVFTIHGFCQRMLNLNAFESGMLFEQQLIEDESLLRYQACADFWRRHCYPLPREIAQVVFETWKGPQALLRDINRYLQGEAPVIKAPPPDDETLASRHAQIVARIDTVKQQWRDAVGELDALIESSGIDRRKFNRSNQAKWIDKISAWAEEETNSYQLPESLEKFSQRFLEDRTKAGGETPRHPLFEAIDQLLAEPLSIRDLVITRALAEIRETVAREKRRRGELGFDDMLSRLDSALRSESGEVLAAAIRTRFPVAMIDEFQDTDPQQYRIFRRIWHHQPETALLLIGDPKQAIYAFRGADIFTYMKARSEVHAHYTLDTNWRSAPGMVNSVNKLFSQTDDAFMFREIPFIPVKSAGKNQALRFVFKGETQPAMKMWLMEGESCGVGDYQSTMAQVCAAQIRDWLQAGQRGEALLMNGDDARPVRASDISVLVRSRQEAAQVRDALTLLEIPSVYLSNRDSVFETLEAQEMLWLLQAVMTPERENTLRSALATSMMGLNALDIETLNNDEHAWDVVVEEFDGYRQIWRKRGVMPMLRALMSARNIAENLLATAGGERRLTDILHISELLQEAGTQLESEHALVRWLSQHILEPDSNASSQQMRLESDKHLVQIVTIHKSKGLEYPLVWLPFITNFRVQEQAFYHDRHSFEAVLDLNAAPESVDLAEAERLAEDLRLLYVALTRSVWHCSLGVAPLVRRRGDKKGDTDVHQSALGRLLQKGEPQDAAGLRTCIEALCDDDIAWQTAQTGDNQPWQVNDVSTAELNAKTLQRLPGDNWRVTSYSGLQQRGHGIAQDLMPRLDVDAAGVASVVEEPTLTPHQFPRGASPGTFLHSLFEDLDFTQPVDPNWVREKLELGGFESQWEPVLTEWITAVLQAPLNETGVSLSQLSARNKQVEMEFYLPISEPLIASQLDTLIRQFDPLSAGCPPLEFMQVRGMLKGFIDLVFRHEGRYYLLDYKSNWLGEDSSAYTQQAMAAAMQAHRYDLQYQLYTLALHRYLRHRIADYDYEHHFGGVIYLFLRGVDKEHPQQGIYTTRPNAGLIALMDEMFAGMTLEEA

[8] = Luminescence Cell-Based Dose Retest to Confirm Inhibitors of Cancer Stem Cells. [Related pubchem assays (depositor defined):AID2717, AID2721]; assay type: functional; settings: Homo sapiens
[9] = Counterscreen for AddAB inhibitors: absorbance-based bacterial cell-based high throughput dose response assay for inhibitors of bacterial viability. [Related pubchem assays (depositor defined):AID435030, AID449728, AID449731, AID488942, AID488955, AID488956]; assay type: functional
[10] = target: Heat shock protein HSP 90-alpha (Homo sapiens, UniProt P07900); assay type: functional, organism-based
[11] = tested on: INS1; assay: beta cell apoptosis inhibitors, cytokine rescue, dose response, luminescence, retest (AID 449756); assay type: functional, cell-based; settings: Rattus norvegicus;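 further: cell death triggered by IL-1 beta plus TNF-alpha plus IFN-gamma mixture; protective hits raise ATP signal compared with cytokine alone wells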
[12] = tested on: HEK293; assay: NOD1 signaling inhibitors, primary screen, cell-based, luminescence, uHTS (AID 1578); assay type: functional; settings: Homo sapiens
[13] = tested on: HEK293; assay: cells; assay type: functional, cell-based; settings: Homo sapiens
[14] = tested on: HEK293; assay: cells; assay type: functional, cell-based; settings: Homo sapiens; remark: listed apart in the source
[15] = target: Nucleotide-binding oligomerization domain-containing protein 2 (Homo sapiens, UniProt Q9HC29); assay: NOD2 signaling inhibitors, cell-based, luminescence, uHTS, HEK293 (AID 1566); assay type: functional
Chain of Nucleotide-binding oligomerization domain-containing protein 2 (Q9HC29 whole entry, the tested form may be a part): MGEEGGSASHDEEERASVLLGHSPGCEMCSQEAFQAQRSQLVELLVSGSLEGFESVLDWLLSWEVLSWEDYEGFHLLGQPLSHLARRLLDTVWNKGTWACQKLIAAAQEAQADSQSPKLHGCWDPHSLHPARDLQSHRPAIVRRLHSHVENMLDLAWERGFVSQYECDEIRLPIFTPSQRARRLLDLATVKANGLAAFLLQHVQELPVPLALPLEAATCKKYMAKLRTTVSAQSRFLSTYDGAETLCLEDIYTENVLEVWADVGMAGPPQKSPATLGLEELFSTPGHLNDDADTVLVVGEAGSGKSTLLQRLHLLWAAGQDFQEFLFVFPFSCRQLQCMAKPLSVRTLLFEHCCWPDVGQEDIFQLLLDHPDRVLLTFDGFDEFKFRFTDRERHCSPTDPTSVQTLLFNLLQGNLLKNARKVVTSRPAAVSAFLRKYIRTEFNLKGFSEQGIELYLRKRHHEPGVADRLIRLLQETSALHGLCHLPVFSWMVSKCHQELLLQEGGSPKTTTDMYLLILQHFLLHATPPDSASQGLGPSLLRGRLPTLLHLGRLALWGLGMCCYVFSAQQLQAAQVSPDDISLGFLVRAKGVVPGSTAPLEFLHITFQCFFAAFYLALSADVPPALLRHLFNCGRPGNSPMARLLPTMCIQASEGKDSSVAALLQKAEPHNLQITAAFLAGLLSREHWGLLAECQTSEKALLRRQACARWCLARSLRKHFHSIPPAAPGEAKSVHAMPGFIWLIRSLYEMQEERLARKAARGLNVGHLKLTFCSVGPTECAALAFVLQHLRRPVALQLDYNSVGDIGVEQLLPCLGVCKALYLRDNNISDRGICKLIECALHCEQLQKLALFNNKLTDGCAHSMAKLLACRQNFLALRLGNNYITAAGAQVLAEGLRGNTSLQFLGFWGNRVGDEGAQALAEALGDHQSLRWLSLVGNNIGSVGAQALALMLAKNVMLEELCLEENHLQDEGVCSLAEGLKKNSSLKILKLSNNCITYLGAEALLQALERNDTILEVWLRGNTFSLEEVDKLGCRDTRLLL

[16] = tested on: HEK293; assay: NOD2 signaling inhibitors in MDP-stimulated cells, cell-based, uHTS, luminescence (AID 2001); assay type: functional; settings: Homo sapiens
[17] = tested on: HEK293; assay: cells; assay type: functional, cell-based; settings: Homo sapiens; remark: listed apart in the source
[18] = target: T2, Short transient receptor potential channel 4 (Mus musculus, UniProt Q9QUQ5); assay: mouse TRPC4 channel inhibitors, dose response, cell-based, HEK293 TRPC4/mu-opioid, Fluo-4 calcium (AID 434942); assay type: functional;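 further: potency of inhibitors blocking the TRPC4 calcium response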
T2 sequence (Q9QUQ5 whole entry): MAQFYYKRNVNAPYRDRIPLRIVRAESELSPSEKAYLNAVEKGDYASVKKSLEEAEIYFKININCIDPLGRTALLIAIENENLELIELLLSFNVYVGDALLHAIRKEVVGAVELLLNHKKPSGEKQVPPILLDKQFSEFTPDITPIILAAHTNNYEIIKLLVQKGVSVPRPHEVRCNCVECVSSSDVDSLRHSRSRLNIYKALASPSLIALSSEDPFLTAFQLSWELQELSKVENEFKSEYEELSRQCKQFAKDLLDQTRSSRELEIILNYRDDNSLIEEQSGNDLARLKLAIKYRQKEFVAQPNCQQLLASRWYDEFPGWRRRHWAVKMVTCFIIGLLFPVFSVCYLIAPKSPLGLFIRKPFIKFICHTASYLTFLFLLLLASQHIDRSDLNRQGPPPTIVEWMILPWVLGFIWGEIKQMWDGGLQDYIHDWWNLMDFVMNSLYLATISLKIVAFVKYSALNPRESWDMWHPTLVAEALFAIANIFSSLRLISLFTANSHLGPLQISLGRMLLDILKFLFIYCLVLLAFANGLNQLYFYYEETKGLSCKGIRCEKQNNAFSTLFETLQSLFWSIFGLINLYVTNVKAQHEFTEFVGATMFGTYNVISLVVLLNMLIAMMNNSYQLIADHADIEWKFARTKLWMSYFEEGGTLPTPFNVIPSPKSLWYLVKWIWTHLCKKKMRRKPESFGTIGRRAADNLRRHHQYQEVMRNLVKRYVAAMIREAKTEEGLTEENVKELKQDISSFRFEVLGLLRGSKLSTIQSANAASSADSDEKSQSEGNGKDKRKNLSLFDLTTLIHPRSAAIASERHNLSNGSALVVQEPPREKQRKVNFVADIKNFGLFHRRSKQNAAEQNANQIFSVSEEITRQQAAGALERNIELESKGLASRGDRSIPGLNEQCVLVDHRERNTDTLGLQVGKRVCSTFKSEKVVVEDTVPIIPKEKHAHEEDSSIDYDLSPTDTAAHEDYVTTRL

[19] = target: T3, Carboxy-terminal domain RNA polymerase II polypeptide A small phosphatase 1 (Homo sapiens, UniProt Q9GZU7); assay: inhibitors of CTDSP1, concentration-response testing, biochemical assay, absorbance-based, actives from ultra-high-throughput screening (AID 540297); assay type: functional
T3 sequence (Q9GZU7 whole entry): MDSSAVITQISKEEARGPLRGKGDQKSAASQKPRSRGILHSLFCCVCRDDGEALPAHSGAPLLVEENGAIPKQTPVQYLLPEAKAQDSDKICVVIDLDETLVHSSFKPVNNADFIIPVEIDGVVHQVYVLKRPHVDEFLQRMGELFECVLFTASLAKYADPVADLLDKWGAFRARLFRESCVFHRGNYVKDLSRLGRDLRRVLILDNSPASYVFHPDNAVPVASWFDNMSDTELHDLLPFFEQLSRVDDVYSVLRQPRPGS

SMILES | IC50 [7] | IC50 [9] | EC50 [12] | IC50 [13] | IC50 [14] | EC50 [15] | IC50 [16] | IC50 [17] | further results
CCCC(=O)NC(c1ccc2c(c1)OCO2)c1cc(Cl)c2cccnc2c1O (centres undefined) | > 119 µM (inactive) | > 119 µM (inactive) | – | – | – | – | – | – | EC50 [1]: 4.09 µM (active); EC50 [2]: 47.7 µM (active); EC50 [3]: 0.912 µM (active); EC50 [4]: > 350 µM (not active); EC50 [5]: 2.21 µM (active); EC50 [6]: 7.69 µM (active); AC50 [8]: 3.06 µM (active); AC50 [10]: 3.41 µM (active); AC50 [11]: 1.03 µM (active)
Cc1nc(N2CCN(c3ccccn3)CC2)c2c(C)c(C(=O)N3CCN(c4ccccc4F)CC3)sc2n1 | – | – | 6.4 µM (active) | 6.62 µM (active) | > 20 µM (inactive) | 5.07 µM (active) | 7.16 µM (inactive) | 11 µM (active) | EC50 [18]: 1.68 µM (active)
CCS(=O)(=O)C1=NN2C(=N)/C(=C\c3ccc(OCCOc4cccc(OC)c4)c(OC)c3)C(=O)N=C2S1 | – | – | > 20 µM (inactive) | > 20 µM (inactive) | > 20 µM (inactive) | 3.32 µM (active) | > 20 µM (inactive) | > 20 µM (inactive) | IC50 [19]: 4.26 µM (active)
Cc1c(Cl)cccc1N=C(S)NCc1ccccc1Cl | > 119 µM (inactive) | > 119 µM (inactive) | – | – | – | – | – | – | –
CSc1nc(N)nc2c1ncn2CC(=O)Nc1ccc(C)c(C)c1 | > 118 µM (inactive) | > 118 µM (inactive) | – | – | – | – | – | – | –

From ChEMBL document CHEMBL1201862, “PubChem BioAssay data set” (2004)
